The text below walks through data of PMC9925432, “Thioquinoline derivatives conjugated to thiosemicarbazide as potent tyrosinase inhibitors with anti-melanogenesis properties” (Scientific Reports, 2023).

Data set [1] has as its target T1, Mushroom tyrosinase (EC 1.14.18.1) (Agaricus bisporus, UniProt C7FF04).
T1 construct: purchased Sigma Chemical Co
Nature of the data set: Tyrosinase inhibitory assay (colorimetric, diphenolase activity, L-Dopa). Format: biochemical. To be noted: for IC50: L-Dopa as substrate, means ± RSD of 3 independent experiments. On the procedure: Mushroom tyrosinase (EC 1.14.18.1) (Sigma Chemical Co.) was assayed using L-Dopa as the substrate as reported in our previous studies with some modifications[30]–[32]. The enzyme diphenolase activity was monitored spectrophotometrically by observing dopachrome formation at 490 nm. All the test samples were first dissolved in DMSO at 10 mM and diluted to the required concentrations. Initially, in a 96-well microplate, 10 µl of test samples were added to 160 µl of 50 mM phosphate buffer (pH = 6.8) and then 10 µl tyrosinase (500 U mL^−1) was added. After the mixture was pre-incubated at 28 °C for 20 min, 20 µl of L-Dopa solution (7 mM) was added to the mixture. After 10 min incubation absorbance of samples was measured. DMSO without test compounds was used as the control, and kojic acid was used as a positive control. Each assay was conducted as three separate replicates. The inhibitory activity of the tested compounds was expressed as the concentration that inhibited 50% of the enzyme activity (IC50). […]

A short description of data set [2]: MTT assay for cell viability, HEK 293. It is filed as cell-based. To be noted: human, HEK 293 cells, 48 h, MTT, mean ± S.E.M.; for viability at 48 h, 16 µM: HEK 293, 16 µM; for viability at 48 h, 32 µM: HEK 293, 32 µM; for viability at 48 h, 64 µM: HEK 293, 64 µM. On the procedure:
(§1) The cytotoxic activity of all derivatives against the HEK 293 cell line and 10g against A375 (at a density of 5 × 10^3 cells/ml) using 3-(4,5-dimethylthiazol-2-yl)-2,5- diphenyltetrazolium bromide (MTT) assay were performed. Cells were grown at 37 °C in the presence of CO2 5% in DMEM (Gibco BRL, Grand Island, NY, USA), 10% fetal bovine serum (FBS, Gibco BRL), and penicillin/streptomycin (100 IU/mL and 100 µg/mL, respectively). Next cells were seeded in a 96-well plate and incubated at 37 ^∘C with derivatives at different concentrations for 48 h. Following the treatment, cells were incubated with MTT (0.5 mg/ml) at 37 ^∘C for 3 h. The MTT-containing medium was then removed, and 100 μl of DMSO was added to each well, mixed thoroughly with a 10 min shake to dissolve formazan crystals. The absorbance of each well was measured at 540 nm[33].
In general terms: Tetrazolium assays rely on reduction of a dye to a coloured formazan, in cell work by metabolically active cells.

A further data set concerns HEK 293 cell line. As to the kind of experiment: MTT assay for cell viability, HEK 293. It is filed as cell-based. The conditions noted are these: for Cell viability (%): HEK 293, 32 µM, 48 h, MTT, mean ± S.E.M., 32 µM. On the procedure:
as §1

For a further data set, the target named is mushroom tyrosinase. The conditions noted are these: cited from earlier work.

Molecules are shown by their SMILES. Read-outs that look alike come from different tables or passages of the source.

By IC50 is commonly meant the concentration needed to halve the response being measured. The melting point is the temperature, or range, at which the solid turns liquid. What is called viability is the share of living cells, or the viability signal relative to a control. Lower therefore signals a greater loss of cells.

T1 sequence (C7FF04 1-392 limits assumed): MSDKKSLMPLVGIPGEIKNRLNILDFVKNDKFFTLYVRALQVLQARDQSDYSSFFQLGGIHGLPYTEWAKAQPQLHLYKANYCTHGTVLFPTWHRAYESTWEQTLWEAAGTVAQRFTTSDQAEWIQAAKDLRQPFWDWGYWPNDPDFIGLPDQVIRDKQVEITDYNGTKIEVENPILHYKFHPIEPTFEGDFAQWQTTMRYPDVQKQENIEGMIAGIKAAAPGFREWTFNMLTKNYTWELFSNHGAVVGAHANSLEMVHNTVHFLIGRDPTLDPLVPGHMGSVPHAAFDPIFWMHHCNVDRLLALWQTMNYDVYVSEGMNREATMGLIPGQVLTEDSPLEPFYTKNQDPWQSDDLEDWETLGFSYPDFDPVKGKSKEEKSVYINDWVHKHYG

With `NC(=S)N/N=C/c1cc2ccccc2nc1SCC(=O)Nc1ccccc1` [Compound 10a, (E)-2-((3-((2-carbamothioylhydrazineylidene)methyl)quinolin-2-yl)thio)-N-phenylacetamide], the melting point fell in the range of 180 to 182 °C. In data set [1], this compound came in with an IC50 of 155 µM. In data set [2], this compound registered a viability at 48 h, 16 µM of 90.19 ± 0.89%; a viability at 48 h, 32 µM of 72.2 ± 2.13%; a viability at 48 h, 64 µM of 65.8 ± 1.99%.

As to `Cc1ccc(NC(=O)CSc2nc3ccccc3cc2/C=N/NC(N)=S)cc1` [Compound 10b, (E)-2-((3-((2-carbamothioylhydrazono)methyl)quinolin-2-yl)thio)-N-(p-tolyl)acetamide], the melting point was 180 to 185 °C. This compound came in with a half-inhibitory concentration (IC50) in data set [1] of at least 200 µM. In addition, in data set [2], the viability at 48 h, 16 µM was found to be 96.2 ± 2.58% and the viability at 48 h, 32 µM was 81.5 ± 2.91%.

Regarding `CCc1ccc(NC(=O)CSc2nc3ccccc3cc2/C=N/NC(N)=S)cc1` [Compound 10c, (E)-2-((3-((2-carbamothioylhydrazono)methyl)quinolin-2-yl)thio)-N-(4-ethylphenyl)acetamide], the melting point was in the range of 178 to 180 °C. Also, in data set [1], the midpoint of inhibition, the IC50, lay at 85.3 µM. Moreover, in data set [2], the viability at 48 h, 16 µM is 82.55 ± 0.5%; the viability at 48 h, 32 µM stood at 69.3 ± 1.81%; the viability at 48 h, 64 µM was found to be 58.3 ± 1.03%.

Turning to `Cc1cccc(NC(=O)CSc2nc3ccccc3cc2/C=N/NC(N)=S)c1C` [Compound 10d, (E)-2-((3-((2-carbamothioylhydrazono)methyl)quinolin-2-yl)thio)-N-(2,3-dimethylphenyl)acetamide], the melting point was in the range of 185 to 187 °C. In addition, in data set [1], the half-inhibitory concentration (IC50) amounted to 101 µM. In data set [2], this compound returned a viability at 48 h, 16 µM of 87.52 ± 0.65%; a viability at 48 h, 32 µM of 79.12 ± 0.62%; a viability at 48 h, 64 µM of 71.4 ± 2.97%.

As for `COc1ccc(NC(=O)CSc2nc3ccccc3cc2/C=N/NC(N)=S)cc1` [Compound 10e, (E)-2-((3-((2-carbamothioylhydrazineylidene)methyl)quinolin-2-yl)thio)-N-(4-methoxyphenyl)acetamide], the melting point lay within 191 to 193 °C. The compound also displayed a half-maximal inhibitory concentration (IC50) in data set [1] of 47.4 µM. In data set [2], the viability at 48 h, 16 µM worked out at 85.6 ± 1.08%; the viability at 48 h, 32 µM was found to be 71.2 ± 3.86%; the viability at 48 h, 64 µM turned out to be 62 ± 4.15%.

`NC(=S)N/N=C/c1cc2ccccc2nc1SCC(=O)Nc1ccc([N+](=O)[O-])cc1` [Compound 10f, (E)-2-((3-((2-carbamothioylhydrazineylidene)methyl)quinolin-2-yl)thio)-N-(4-nitrophenyl)acetamide]: the melting point was 180 to 182 °C. Besides, half-maximal inhibition in data set [1] (IC50) required 39.8 µM. Besides, in data set [2], the viability at 48 h, 16 µM worked out at 97.67 ± 0.55%; the viability at 48 h, 32 µM was above 85%; the viability at 48 h, 64 µM was 80 ± 2.05%. The “Cell viability (%)” value in the data set on HEK 293 cell line was determined as 88.12 ± 4.05%.

`NC(=S)N/N=C/c1cc2ccccc2nc1SCC(=O)Nc1ccc(Cl)cc1Cl` [Compound 10h, (E)-2-((3-((2-carbamothioylhydrazono)methyl)quinolin-2-yl)thio)-N-(2,4-dichlorophenyl)acetamide] yielded a melting point of 188 to 190 °C. In data set [1], this compound showed a half-inhibitory concentration (IC50) of 169 µM. In data set [2], this compound registered a viability at 48 h, 16 µM of 96.9 ± 1.59%; a viability at 48 h, 32 µM of 78.7 ± 2.19%; a viability at 48 h, 64 µM of 67.9 ± 3.21%.

In data set [1], `NC(=S)N/N=C/c1cc2ccccc2nc1SCC(=O)Nc1ccccc1Br` [Compound 10j, (E)-N-(2-bromophenyl)-2-((3-((2-carbamothioylhydrazono)methyl)quinolin-2-yl)thio)acetamide] registered an IC50 of at least 200 µM. Besides, in data set [2], the viability at 48 h, 16 µM came to 91.2 ± 4.35%; the viability at 48 h, 32 µM is above 85%; the viability at 48 h, 64 µM was determined as 79.9 ± 3.16%. Also, in the data set with HEK 293 cell line, the “Cell viability (%)” value is 88.65 ± 2.31%.

`NC(=S)N/N=C/c1cc2ccccc2nc1SCC(=O)NCc1ccccc1` [Compound 10k, (E)-N-benzyl-2-((3-((2-carbamothioylhydrazono)methyl)quinolin-2-yl)thio)acetamide] returned a melting point of 183 to 185 °C. Moreover, the 50% inhibitory concentration (IC50) in data set [1] came to 62 µM. Moreover, the “fold improvement in the potency compared to 10a” value in data set [1] (ratio of tyrosinase IC50 values) was “around 2.5 fold”. In data set [2], this compound had a viability at 48 h, 16 µM of 77.3 ± 2.55%; a viability at 48 h, 32 µM of 65.4 ± 3.49%; a viability at 48 h, 64 µM of 51.1 ± 1.06%.

In turn, `Cc1ccc(CNC(=O)CSc2nc3ccccc3cc2/C=N/NC(N)=S)cc1` [Compound 10l, (E)-2-((3-((2-carbamothioylhydrazineylidene)methyl)quinolin-2-yl)thio)-N-(4-methylbenzyl)acetamide] came in with a melting point of 180 to 182 °C. The same compound came in with an IC50 in data set [1] of 78.5 µM. In data set [2], this compound returned a viability at 48 h, 16 µM of 75.1 ± 1.99%; a viability at 48 h, 32 µM of 62.6 ± 1.58%; a viability at 48 h, 64 µM of 50 ± 0.88%.

The compound `NC(=S)N/N=C/c1cc2ccccc2nc1SCC(=O)NCc1ccc(F)cc1` [Compound 10m, (E)-2-((3-((2-carbamothioylhydrazono)methyl)quinolin-2-yl)thio)-N-(4-fluorobenzyl)acetamide] came in with a melting point of 186 to 188 °C. This compound showed a 50% inhibitory concentration (IC50) in data set [1] of 53.3 µM. In data set [2], this compound registered a viability at 48 h, 16 µM of 95.5 ± 2.97%; a viability at 48 h, 32 µM above 85%; a viability at 48 h, 64 µM of 71.2 ± 5.42%. The “Cell viability (%)” value with HEK 293 cell line is listed as 86.44 ± 1.17%.

Take `COc1cccc2c1C(=O)c1c(O)c3c(c(O)c1C2=O)C[C@@](O)(C(=O)CO)C[C@@H]3O[C@H]1C[C@H](N)[C@H](O)[C@H](C)O1` [Doxorubicin, reference compound]: in the data set with HEK 293 cell line (Homo sapiens, HEK293, HEK 293, MTT, read-out: IC50 (positive control)), the half-maximal inhibitory concentration (IC50) was 1.3 µM.

Turning to `NC(=S)N/N=C/c1ccc(OCc2cn(CC(=O)NCc3ccccc3)nn2)cc1` [G], the concentration for half-maximal inhibition (IC50) on mushroom tyrosinase (L-Dopa as substrate) was 0.17 µM; on mushroom tyrosinase (L-tyrosine as substrate) it was 0.11 µM.

For `OC[C@H]1O[C@@H](Oc2ccc(O)cc2)[C@H](O)[C@@H](O)[C@@H]1O` [arbutin], on mushroom tyrosinase (tyrosinase), the IC50 is 180 µM.
